The values that follow come from BindingDB's records for patent US20240150287 (Hangzhou Apeloa Medicine Research Institute Co., 2024).

Molecules are shown by their SMILES.

In general, IC50 refers to the midpoint of a concentration-inhibition curve. Read a low IC50 as inhibition by little substance.

In this experiment the target is T1, Mucosal addressin cell adhesion molecule 1/Integrin alpha-4/beta-7 (Homo sapiens, UniProt P13612+P26010+Q13477).
T1 sequence (P13612 whole entry): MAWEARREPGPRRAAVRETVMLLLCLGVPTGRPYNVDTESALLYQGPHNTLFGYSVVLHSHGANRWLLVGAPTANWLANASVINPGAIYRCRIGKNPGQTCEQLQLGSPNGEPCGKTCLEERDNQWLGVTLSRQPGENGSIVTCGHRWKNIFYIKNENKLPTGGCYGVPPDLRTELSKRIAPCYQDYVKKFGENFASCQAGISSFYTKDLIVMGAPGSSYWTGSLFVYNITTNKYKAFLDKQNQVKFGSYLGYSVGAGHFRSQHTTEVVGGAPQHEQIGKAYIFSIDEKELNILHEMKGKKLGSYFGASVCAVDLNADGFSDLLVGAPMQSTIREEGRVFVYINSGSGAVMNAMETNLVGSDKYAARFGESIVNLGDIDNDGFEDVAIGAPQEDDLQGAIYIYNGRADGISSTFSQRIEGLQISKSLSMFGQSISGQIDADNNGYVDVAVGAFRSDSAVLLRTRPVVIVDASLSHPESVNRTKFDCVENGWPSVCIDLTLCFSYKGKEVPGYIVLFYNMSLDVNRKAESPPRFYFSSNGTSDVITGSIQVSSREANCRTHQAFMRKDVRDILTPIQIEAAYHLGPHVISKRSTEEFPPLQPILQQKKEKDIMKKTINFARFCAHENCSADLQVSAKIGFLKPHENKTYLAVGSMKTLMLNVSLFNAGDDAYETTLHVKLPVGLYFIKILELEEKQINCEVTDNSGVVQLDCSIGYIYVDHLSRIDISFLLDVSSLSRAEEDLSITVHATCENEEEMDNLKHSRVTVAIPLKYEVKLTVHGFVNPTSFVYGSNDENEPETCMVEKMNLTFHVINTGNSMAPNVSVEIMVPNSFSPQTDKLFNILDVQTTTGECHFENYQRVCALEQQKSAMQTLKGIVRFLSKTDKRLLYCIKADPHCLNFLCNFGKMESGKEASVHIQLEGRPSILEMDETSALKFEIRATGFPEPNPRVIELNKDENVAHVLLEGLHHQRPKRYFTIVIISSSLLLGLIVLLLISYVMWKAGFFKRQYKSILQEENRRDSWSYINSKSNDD
T1 sequence (P26010 whole entry): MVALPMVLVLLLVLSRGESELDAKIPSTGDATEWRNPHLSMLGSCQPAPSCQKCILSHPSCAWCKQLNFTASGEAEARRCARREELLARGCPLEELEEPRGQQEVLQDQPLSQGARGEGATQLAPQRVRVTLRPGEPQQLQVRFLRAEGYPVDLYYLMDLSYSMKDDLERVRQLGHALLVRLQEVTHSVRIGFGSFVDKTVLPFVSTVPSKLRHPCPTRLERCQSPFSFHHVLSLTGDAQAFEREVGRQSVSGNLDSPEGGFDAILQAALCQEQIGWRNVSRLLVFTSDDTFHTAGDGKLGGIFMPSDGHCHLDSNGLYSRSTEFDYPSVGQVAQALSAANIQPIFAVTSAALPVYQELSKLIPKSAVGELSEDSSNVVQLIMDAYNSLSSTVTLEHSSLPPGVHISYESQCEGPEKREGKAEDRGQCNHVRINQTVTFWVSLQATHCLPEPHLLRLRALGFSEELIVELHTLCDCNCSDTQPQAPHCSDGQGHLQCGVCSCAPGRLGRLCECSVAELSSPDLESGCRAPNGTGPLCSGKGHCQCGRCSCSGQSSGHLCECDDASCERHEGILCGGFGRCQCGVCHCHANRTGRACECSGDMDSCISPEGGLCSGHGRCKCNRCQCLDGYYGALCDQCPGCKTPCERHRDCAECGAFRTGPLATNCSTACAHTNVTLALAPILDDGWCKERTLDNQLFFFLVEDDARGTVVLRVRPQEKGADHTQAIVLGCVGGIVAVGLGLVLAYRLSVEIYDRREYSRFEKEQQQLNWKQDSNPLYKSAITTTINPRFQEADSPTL
T1 sequence (Q13477 whole entry): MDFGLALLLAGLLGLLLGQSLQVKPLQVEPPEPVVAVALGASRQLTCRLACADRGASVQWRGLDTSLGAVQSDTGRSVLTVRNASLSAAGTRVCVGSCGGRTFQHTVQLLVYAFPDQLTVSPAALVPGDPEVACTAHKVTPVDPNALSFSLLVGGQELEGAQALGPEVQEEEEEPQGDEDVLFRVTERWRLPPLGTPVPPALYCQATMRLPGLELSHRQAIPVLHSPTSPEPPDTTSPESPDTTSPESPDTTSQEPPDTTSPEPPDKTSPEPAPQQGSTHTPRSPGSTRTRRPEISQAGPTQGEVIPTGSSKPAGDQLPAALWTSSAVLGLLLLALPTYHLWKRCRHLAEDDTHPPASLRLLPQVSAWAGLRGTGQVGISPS
In words: BINDING INHIBITION ACTIVITY EVALUATION TEST. As to the method: Coat the 96-well microplate (Costar) with 50 μL of recombinant human MAdCAM-1 (R&D Systems) solution per well, and incubate overnight (12-18 hours) at 4° C. Wash three times with 150 μL of TBS buffer per well. Block plate with 150 μL per well with blocking buffer for 1 h at 37° C. Wash three times with 150 μL of TBS buffer per well. Dilute the recombinant human integrin α4β7 (R&D Systems) with TBS buffer containing 0.1% bovine serum albumin (BSA), then add to the 96 well plate with 50 μL per well. Add 1 μL of test compound or DMSO, cover, incubate at room temperature for 2 h, wash three times with 150 μL of TBS buffer per well. Dilute the anti-β7 antibody (R&D Systems) with 0.1% BSA TBS buffer, then add to the 96 well plate with 50 μL per well, cover, incubate at room temperature for 1 h, wash three times with 150 μL of TBS buffer per well. Add 50 μL of streptavidin-HRP (R&D Systems) per well, incubate at room temperature for 20 min, wash three times with 150 μL of TBS buffer per well. Add 50 μL of TMB substrate solution (Sigma) per well, incubate at room temperature for 5-30 min, and add 25 μL of stop solution per well to stop the reaction. Finally, measure absorbance at 450 nm with microplate reader (SpectraMax 340PC. Molecular Devices). Repeat the test to find the binding rate […] at each concentration when the absorbance of the well without the test substance is used as 100%, and calculate the concentration IC50 that causes 50% binding inhibition.
As for `COC(=O)[C@H](Cc1ccc(N2C(=O)C3(CC3)c3cc(F)c(N(C)C)cc32)cc1)NC(c1ccccc1)(c1ccccc1)c1ccccc1` [US20240150287, Example 11], the IC50 is 3.05 nM.
The same measure for `COC(=O)[C@H](Cc1ccc(-n2c(=O)n(C)c3cccc(Cl)c32)cc1)NC(=O)c1c(Cl)cc(N2CCOCC2)cc1Cl` [US20240150287, Example 39]: 3.65 nM.
The same measure for `COC(=O)[C@H](Cc1ccc(N2C(=O)C3(CC3)c3cc(F)c(Cl)cc32)cc1)NC(c1ccccc1)(c1ccccc1)c1ccccc1` [US20240150287, Example 8]: 17.6 nM; for `COC(=O)[C@H](Cc1ccc(-n2c(=O)n(C3CC3)c3cc(Cl)ccc32)cc1)NC(c1ccccc1)(c1ccccc1)c1ccccc1` [US20240150287, Example 23]: 143 nM; for `COC(=O)[C@H](Cc1ccc(N2C(=O)C3(CC3)c3cccc(Cl)c32)cc1)NC(=O)c1c(Cl)cc(N2CC3CC2CO3)cc1Cl` (stereo partly specified) [US20240150287, Example 20]: 4.15 nM.
The same measure for `COC(=O)[C@H](Cc1ccc(N2C(=O)C3(CC3)c3ccc(F)c(F)c32)cc1)NC(c1ccccc1)(c1ccccc1)c1ccccc1` [US20240150287, Example 15]: 5.62 nM.
